From PubChem BioAssay AID1919010 (Molecular Pharmacology Branch, DTP, NCI, 2023) come the findings set out here.

For this test, the system named is Hs578T complex spheroid growth, percent test/control. As to the kind of experiment: Anticancer human tumor Hs578T cell line growth inhibition [AhR].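 On all read-outs here: luminescent viability signal as a proxy for spheroid growth; spheroids exposed to agents for one week after three days of growth.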 Particulars: for viability, T/C: stronger effect = lower value; for IC50: curve of compound. The source says:
Multicellular complex tumor spheroid response to aryl hydrocarbon receptor antagonists in combination with a variety of drugs and investigational agents in selected tumor cell lines
The current study was undertaken to assess response to aryl hydrocarbon receptor antagonists in combination with standard-of-care drugs and investigational agents in solid tumor complex spheroid models. Complex spheroids include a stromal component modeled by human endothelial cells (HUVEC) and fibroblasts modeled by human mesenchymal stem cells (MSCs). The concentration ranges selected for each drug and investigational agent were based upon clinically achievable concentrations if the clinical Cmax of the agent was known.
Compounds. The drugs and investigational agents: BAY 2416964 (NSC825713), GNF351 (NSC835774), CH-223191 (NSC835775), CPI-455 (NSC825282), aza-TdCyd (NSC777586), decitabine (NSC127716), belinostat (NSC758774), entinostat (NSC756642), pevonedistat (NSC761192), tazemetostat (NSC777109), talazoparib (NSC765396), olaparib (NSC753686), selinexor (NSC780203), nedisertib (M3814, NSC802822), bortezomib (NSC756655), venetoclax (NSC766270), doxorubicin (NSC123127), elimusertib (BAY189344, NSC800525), ceralasertib (AZD6738, NSC777638), TAK-243 (NSC785004), alisertib (NSC759677), etoposide (NSC141540), topotecan (NSC609699), eribulin (NSC707389), gemcitabine (NSC613327), carboplatin (NSC241240), cisplatin (NSC119875), and SN-38 (NSC673596) were obtained from the National Cancer Institute (NCI) Developmental Therapeutics Program Chemical Repository (32). The FDA-approved anticancer drug set is available from the Developmental Therapeutics Program at https://dtp.cancer.gov/organization/dscb/obtaining/available plates.htm. […] The stock solutions were prepared in dimethyl sulfoxide (DMSO, Sigma-Aldrich, St. Louis, MO, cat. D2650), except for the platinum compounds which were prepared in saline (Quality Biological, Gaithersburg, MD, cat. 114-055-101), at 800-fold the tested concentration and stored at -70 degrees C prior to their use. All drugs and investigational agents were tested over a range starting from a high concentration at or near the clinical Cmax and decreasing in half-log increments. If the clinical Cmax for an agent had not been determined, the highest concentration tested was 10 microM (Table 1).
Cell Culture. All cells were maintained in an incubator at 37 degrees C and 5% CO2 with 95% humidity. The PDC lines were cultured according to standard operating procedures established by the NCI PDMR (https://pdmr.cancer.gov). Briefly, all PDCs were thawed and cultured in Matrigel-coated flasks prepared with a working solution of 1X Ham's F-12 nutrient mix, without supplementation (Invitrogen, Waltham, MA, cat. 11765054), 100 U/mL penicillin-streptomycin (Invitrogen, cat. 15140122), and 2.5% Matrigel (Corning Inc., Corning, NY, cat. 354248) for the first three passages. All PDCs were cultured in complete DMEM/F-12 media containing advanced DMEM/F-12 (Invitrogen, cat. 12634028), 4.9% defined fetal bovine serum, heat inactivated (HyClone Laboratories Inc., Logan, UT, cat. SH30070.03HI), 389 ng/mL hydrocortisone (Sigma-Aldrich, cat. H4001), 9.7 ng/mL human EGF recombinant protein (Invitrogen, cat. PHG0313), 23.4 microg/mL adenine (Sigma-Aldrich, cat. A2786), 97.3 U/mL penicillin-streptomycin (Invitrogen, cat. 15140122), 1.9 mM L-glutamine (Invitrogen, cat. 25030081), and 9.7 microM Y-27632 dihydrochloride (Tocris Bioscience, Bristol, United Kingdom, cat. 1254). The PDCs were cultured in complete DMEM/F12 media without 10 microM Y-27632 dihydrochloride for at least two passages prior to the screen. The established cell lines NCI-H1341 and […] were cultured in DMEM/F-12, HEPES (Invitrogen, cat. 11330032), 5% defined fetal bovine serum (HyClone Laboratories Inc., cat. SH30070.03), ITS premix universal culture supplement [insulin (5 microg/mL), transferrin (5 microg/mL), and selenious acid (5 ng/mL)] […]

Where “and” joins values, the source holds several entries; their conditions need not be identical. Equal values may be shown once.

One may read the viability, T/C as the result in the treated group divided by that in the control group, in per cent. By IC50 is commonly meant the point on the concentration scale where inhibition reaches its midpoint. On to `Cn1ncnc1C1c2n[nH]c(=O)c3cc(F)cc(c23)NC1c1ccc(F)cc1` (configuration not stated), for which the IC50 was over 100 nM. Also, the viability, T/C (compound 0.000316 µM) was 92.2% and 98.6% and 103%. Also, the viability, T/C (compound 0.001 µM) is 104% and 105% and 101%. Besides, the viability, T/C (compound 0.00316 µM) is 113% and 105% and 109%. Also, under “compound 0.01 µM”, the viability, T/C is 106% and 105% and 103%. For the same compound, the viability, T/C (compound 0.0316 µM) was 97.6% and 104% and 106%. Further, the viability, T/C (compound 0.1 µM) was 102% and 96.8% and 95.4%.

For the compound `NS(=O)(=O)OCC1CC(n2ccc3c(NC4CCc5ccccc54)ncnc32)CC1O` (configuration not stated), the IC50 is 1850 nM and 1520 nM and 1090 nM. The viability, T/C (compound 0.0316 µM) was 105% (2×) and 111%. In addition, the viability, T/C (compound 0.1 µM) was 91.6% and 81.1% and 96.8%. In addition, the viability, T/C (compound 0.316 µM) was 96.3% and 80.9% and 75.9%. The viability, T/C (compound 1 µM) was 61.7% and 50.2% and 53.7%. Besides, the viability, T/C (compound 3.16 µM) was 41% and 40.2% and 31.6%. Besides, under “compound 10 µM”, the viability, T/C is 36.6% and 31.7% and 31.8%.

As for `Nc1ccccc1NC(=O)c1ccc(CNC(=O)OCc2cccnc2)cc1`, the IC50 is 1640 nM and 1300 nM and 1190 nM. Besides, for the setting “compound 0.0316 µM”, the viability, T/C was 110% and 93.1% and 105%. Besides, the viability, T/C (compound 0.1 µM) was 94.4% and 93.7% and 104%. Besides, under “compound 0.316 µM”, the viability, T/C is 90.6% and 82% and 81.3%. Besides, for the setting “compound 1 µM”, the viability, T/C is 65.3% and 61.6% and 56.3%. Also, the viability, T/C (compound 3.16 µM) is 29.8% and 16.3% and 22.4%. Further, the viability, T/C (compound 10 µM) was 1.27% and 0.71% and 1.79%.

Regarding `Nc1ccn(C2OC(CO)C(O)C2(F)F)c(=O)n1` (configuration not stated), the viability, T/C was 47.9% and 47.2% and 52.3% (compound 0.0316 µM); 58.5% and 48.9% and 52.8% (compound 0.1 µM); 58.5% and 51% and 51.5% (compound 0.316 µM); 52.4% and 51.2% and 50.9% (compound 1 µM); 50.7% and 50.1% and 51.2% (compound 3.16 µM); 56.5% and 43.3% and 49% (compound 10 µM).

For the compound `Nc1ncn(C2CC(O)C(CO)O2)c(=O)n1` (configuration not stated), the IC50 was over 1000 nM. The viability, T/C (compound 0.00316 µM) is 107% and 102% and 97.1%. Besides, the viability, T/C (compound 0.01 µM) is 104% (2×) and 97.5%. Under “compound 0.0316 µM”, the viability, T/C is 117% and 101% and 103%. In addition, the viability, T/C (compound 0.1 µM) was 102% and 105% and 98.2%. Besides, the viability, T/C (compound 0.316 µM) is 101% and 92.1% and 94.3%. Where the note is “compound 1 µM”, the viability, T/C was 89.7% and 90.5% and 96.5%.

In the case of `Nc1ncn(C2CC(O)C(CO)S2)c(=O)n1` (configuration not stated), the IC50 was over 300 nM. Further, the viability, T/C (compound 0.000949 µM) was 112% and 105% and 101%. For the same compound, the viability, T/C (compound 0.003 µM) was 100% and 106% and 101%. The viability, T/C (compound 0.00949 µM) is 116% and 96% and 105%. The viability, T/C (compound 0.03 µM) was 102% and 97.7% and 101%. In addition, for the setting “compound 0.0949 µM”, the viability, T/C is 102% and 97.4% and 104%. Further, the viability, T/C (compound 0.3 µM) is 98.1% and 90.8% and 94.5%.

As to `O=C(C=Cc1cccc(S(=O)(=O)Nc2ccccc2)c1)NO`, the IC50 is 2910 nM and 1730 nM and 2230 nM. Besides, the viability, T/C (compound 0.0316 µM) was 95.1% and 99% and 103%. Further, the viability, T/C (compound 0.1 µM) is 109% and 96.7% and 106%. The viability, T/C (compound 0.316 µM) is 91.4% and 95.8% and 88.1%. The viability, T/C (compound 1 µM) is 73.5% and 71.2% and 72.4%. Further, the viability, T/C (compound 3.16 µM) was 49.8% and 26% and 40.5%. Also, where the note is “compound 10 µM”, the viability, T/C is 1.74% and 0.77% and 1.35%.

As for `O=C(C=Cn1cnc(-c2cc(C(F)(F)F)cc(C(F)(F)F)c2)n1)NNc1cnccn1`, the IC50 is 346 nM and 176 nM and 244 nM. Besides, the viability, T/C (compound 0.00949 µM) was 91.2% and 92.5% and 96.9%. Further, the viability, T/C (compound 0.03 µM) is 95.9% and 92.7% and 88.6%. Besides, under “compound 0.0949 µM”, the viability, T/C was 90.4% and 70.7% and 77.7%. Moreover, the viability, T/C (compound 0.3 µM) is 54.4% and 32.3% and 45.1%. In addition, the viability, T/C (compound 0.949 µM) was 18.8% and 10% and 17.4%. Further, the viability, T/C (compound 3 µM) is 15.7% and 10.8% and 15.9%.

Consider `O=C(c1cc(Cc2n[nH]c(=O)c3ccccc23)ccc1F)N1CCN(C(=O)C2CC2)CC1`, for which the IC50 is over 10000 nM. The viability, T/C (compound 0.0316 µM) was 104% and 103% and 102%. Also, the viability, T/C (compound 0.1 µM) is 108% and 102% and 106%. Also, under “compound 0.316 µM”, the viability, T/C is 109% and 98.8% and 95%. Where the note is “compound 1 µM”, the viability, T/C was 104% and 103% and 88.4%. In addition, the viability, T/C (compound 3.16 µM) is 90.8% and 91.2% and 88.4%. Also, the viability, T/C (compound 10 µM) is 82.5% and 75.1% and 82.1%.
